Active and inactive are the calls of the source. The rule behind the calls is not given here.
What was measured:
[1] = Cytotoxicity against mouse lymphocytes at 10 ug/mL by MTS assay
[2] = Cytotoxicity against mouse lymphocytes at 100 ug/mL by MTS assay
[3] = organism: Mus musculus; assay: Immunostimulant activity in mouse lymphocytes at 100 pg/ml to 1 ug/mL by MTS assay; type: functional, cell-based
[4] = organism: Mus musculus; assay: Increase in LPS-induced proliferation in mouse B-lymphocytes at 1 ug/mL by MTS assay; type: functional, cell-based
[5] = Suppression of concanavalin A-induced proliferation in mouse T-lymphocytes at 1 ug/mL by MTS assay; type: functional
[6] = organism: Mus musculus; assay: Increase in concanavalin A-induced proliferation in mouse T-lymphocytes at 1 ug/mL by MTS assay; type: functional, cell-based

Row | Structure (SMILES) | Activity [1] | Activity [2] | Activity [3] | Activity [4] | Activity [5] | Activity [6]
1 | C[C@@H]1O[C@@H](O[C@@H]2[C@@H](O)[C@H](OC(=O)[C@]34CCC(C)(C)C[C@H]3C3=CC[C@@H]5[C@@]6(C)CC[C@H](O[C@@H]7O[C@H](C(=O)O)[C@@H](O)[C@H](O[C@@H]8OC[C@@H](O)[C@H](O)[C@H]8O)[C@H]7O[C@@H]7O[C@H](CO)[C@H](O)[C@H](O)[C@H]7O)[C@@](C)(C=O)[C@@H]6CC[C@@]5(C)[C@]3(C)CC4)O[C@H](C)[C@@H]2O[C@@H]2O[C@@H](C)[C@H](O[C@@H]3OC[C@@H](O)[C@H](O[C@@H]4OC[C@@H](O)[C@H](O)[C@H]4O)[C@H]3O)[C@@H](O)[C@H]2O)[C@H](O)[C@H](O)[C@H]1O | Non-toxic | 58% | Active | Active | 40% | 
2 | C[C@@H]1O[C@@H](O[C@H]2[C@H](O[C@H]3[C@H](OC(=O)[C@]45CCC(C)(C)C[C@H]4C4=CC[C@@H]6[C@@]7(C)CC[C@H](O[C@@H]8O[C@H](CO)[C@@H](O)[C@H](O)[C@H]8O)[C@@](C)(C=O)[C@@H]7CC[C@@]6(C)[C@]4(C)CC5)O[C@H](CO[C@@H]4O[C@H](CO)[C@@H](O)[C@H](O)[C@H]4O)[C@@H](O)[C@@H]3O)OC[C@H](O)[C@@H]2O)[C@H](O)[C@H](O)[C@H]1O |  | Non-toxic |  | Active |  | Active

From ChEMBL document CHEMBL1155620, “Two new biologically active triterpene saponins from Acanthophyllum squarrosum” (J Nat Prod, 2000)
